Measured values reported in US9540299B2, “MTOR-independent activator of TFEB for autophagy enhancement and uses thereof” (Hong Kong Baptist University, priority 2015, dated 2017).

Target: T1, 3×Flag-TFEB (Homo sapiens, UniProt P19484)
T1 construct: expressed in transfected cells
T1 sequence (P19484 1-476): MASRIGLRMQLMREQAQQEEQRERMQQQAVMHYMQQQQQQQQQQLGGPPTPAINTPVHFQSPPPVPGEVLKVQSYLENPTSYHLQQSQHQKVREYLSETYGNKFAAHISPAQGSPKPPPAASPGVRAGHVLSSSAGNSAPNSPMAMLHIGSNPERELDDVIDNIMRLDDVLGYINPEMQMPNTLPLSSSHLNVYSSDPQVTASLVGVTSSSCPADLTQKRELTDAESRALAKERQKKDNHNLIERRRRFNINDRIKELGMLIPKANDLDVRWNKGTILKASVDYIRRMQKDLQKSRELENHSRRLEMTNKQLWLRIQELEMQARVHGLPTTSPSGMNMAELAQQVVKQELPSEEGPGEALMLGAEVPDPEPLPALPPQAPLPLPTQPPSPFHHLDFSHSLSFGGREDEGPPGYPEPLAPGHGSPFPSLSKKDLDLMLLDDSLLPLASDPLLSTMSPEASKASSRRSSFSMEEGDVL
Assay: Nuclear translocation of Flag-TFEB in Hela cells stably expressing 3×Flag-TFEB (immunostaining, western blot)
Format: cell-based
Conditions: analogs 1 μM, curcumin 10 μM, 12 h, Torin 1 1 μM, 2 h
Description: Cells were treated with curcumin (Cur, 10 μM), A2, B3 and C1 (1 μM) for 12 h. […] Data is quantified by ImageJ software and is presented as mean±SD of three replicates for each treatment conditions. At least 1000 cells are analyzed in each treatment group. *p<0.05 vs. the control (0.1% DMSO). FIG. 4C is a western blot showing the expression of endogenous TFEB. […] Data are presented as the mean±SD from three independent experiments. *p<0.05 vs. the control (0.1% DMSO). FIG. 4E is fluorescence images showing expression of 3×Flag-TFEB in Hela cells having treated with Cur (10 μM), A2, B3 and C1 (1 μM) for 12 h. Torin 1 (1 μM) treatment for 2 h is used as a positive control. Cells were fixed and stained with anti-Flag antibody. […] FIG. 4G is the western blot showing the expression of Flag-tagged TFEB in the cytosolic (Cyt.) and nuclear (Nuc.) fractions. ACTB and H3F3A (H3 histone, family 3A) are used as loading control of cytoplasmic and nuclear fraction, respectively. FIG. 4H is showing the relative intensity of TFEB in the cytosolic and nuclear fractions. Data are presented as the mean±SD from three independent experiments. *p<0.05 vs. the control (0.1% DMSO).
HeLa cells stably expressing 3×Flag-TFEB are treated with curcumin analogs E2, E3 and E4 (1 μM) for 12 hours. Torin 1 (1 μM) treatment for 2 hours is used as a positive control. Cells are fixed and stained with anti-Flag antibody (red) and DAPI (blue) (FIG. 18A). TFEB translocate into nucleus are quantified (FIG. 18B). Quantification data are presented as mean±SD of three replicates in a representative experiment. At least 500 cells are analyzed in each treatment group.
HeLa cells stably expressing 3×Flag-TFEB are treated with curcumin analogs E2, E3 and E4 (1 μM) for 12 hours. Torin 1 (1 μM) treatment for 2 hours is used as a positive control. The expression of TFEB in the cytosolic (Cyt.) and nuclear (Nuc.) fractions are determined by western blotting (FIG. 19A) and quantified (FIG. 19B). TUBB (β-tubulin) and H3F3A (H3 histone, family 3A) are used as loading control of cytoplasmic and nuclear fraction respectively. Quantification data are presented as the mean±SD from three independent experiments. *p<0.05 vs. the control (0.1% DMSO).
N2a, Hela and Hela cells stably expressing 3×-Flag-TFEB are cultured in DMEM supplemented with 10% FBS. SH-SY5Y cells are cultured in DMEM/F12 supplemented with 10% FBS. For drug treatment, the full medium is replaced by fresh Opti-MEM I and then the compounds (in 0.1% DMSO) are added to the cells and incubated for 12 h. Inducible PC12 cells overexpressing SNCA (WT and A53T) (a kind gift from Prof. David C. Rubinsztein at Cambridge University) are grown in DMEM supplemented with 10% horse serum, 5% FBS, 50 μg/ml G418, and 150 μg/ml hygromycin B at 37° C., 10% CO2. Cells are treated with 2 μg/ml doxycycline (Dox) for 24 h to induce SNCA expression. The full medium is changed to Opti-MEM I containing the testing compounds for another 48 h.
Cells are lysed on ice in 1× Lysis Buffer (9803, Life Technologies) with complete protease inhibitor mixture (04693124001, Roche Applied Science). Animal tissues are homogenized in nine volumes of ice-cold PBS supplemented with protease inhibitors. Cytosolic and nuclear fractions are isolated using protocols similar to those described previously. Anti-Flag or TFEB antibody is added to the whole cell lysates and Dynabeads® Protein G (10003D, Life Technologies) is used for immunoprecipitation. Proteins are separated by 10-15% SDS-PAGE, transferred, and blotted with the antibodies described. The blots are then incubated with secondary antibodies or the Clean-Blot IP Detection Reagent (21230, Thermo Scientific) at room temperature for 1 h. The protein signals are detected by ECL kit (32106, Pierce) and quantified using ImageJ software.
Cells are seeded on coverslips placed in 24-well plates. […]

Row | SMILES | nuclear translocation of Flag-TFEB
1 | COc1ccccc1/C=C/C(=O)/C=C/c1ccccc1OC [C1, 1,5-bis(2-methoxyphenyl)penta-1,4-dien-3-one] | significantly promotes
2 | O=C(/C=C/c1ccccc1Cl)/C=C/c1ccccc1Cl [E2] | significantly promote
3 | O=C(/C=C/c1ccccc1Br)/C=C/c1ccccc1Br [E3] | significantly promote
4 | O=C(/C=C/c1ccccc1I)/C=C/c1ccccc1I [E4] | significantly promote
5 | COc1cc(/C=C/C(=O)CC(=O)/C=C/c2ccc(O)c(OC)c2)ccc1O [curcumin, Curcumin, reference compound] | no effects

The next lines start with the values.

Row | nuclear translocation of Flag-TFEB | SMILES
6 | no effects | O=C(/C=C/c1cccc(C(F)(F)F)c1)/C=C/c1cccc(C(F)(F)F)c1 [A2, 1,5-bis(3-(trifluoromethyl)phenyl)penta-1,4-dien-3-one]
7 | no effects | O=C(/C=C/c1ccc(O)cc1)/C=C/c1ccc(O)cc1 [B3, 1,5-bis(4-hydroxyphenyl)penta-1,4-dien-3-one]
